Data: ChEMBL document CHEMBL1201862, “PubChem BioAssay data set” (2004)
Active and inactive are the calls of the source.

Experiments:
Cytochrome P450 2C9 = Cytochrome P450 2C9 (Homo sapiens, UniProt P11712)
Cytochrome P450 2C19 = Cytochrome P450 2C19 (Homo sapiens, UniProt P33261); experiment: Cytochrome panel assay with activity outcomes. Panel member name: p450-cyp2c19 Compounds with AC50 equal or less than 10 uM are considered active; format: functional
[1] = Luminescence Cell-Based Dose Response HTS to Identify Activators of Luciferase Translation or Activity in H4 […] Cells. [Related pubchem assays: 1829 (Project Summary), 1814 (Primary HTS)]; format: functional
[2] = Luminescence Cell-Based Dose Confirmation HTS to Identify Activators of 5'UTR Stem-Loop Driven Alpha-Synuclein mRNA Translation in H4 Neuroglioblastoma Cells. [Related pubchem assays: 1829 (Project Summary), 1814 (Primary HTS)]; format: functional
H4 = experiment: Luminescence Cell-Based Dose Response HTS to Identify Activators of 5'UTR Stem-Loop Driven Prion Protein mRNA Translation in H4 Neuroglioblastoma Cells. [Related pubchem assays: 1829 (Project Summary), 1814 (Primary HTS)]; format: functional; settings: Homo sapiens
[3] = biological target: T1, Polyadenylate-binding protein 1 (Homo sapiens, UniProt P11940); experiment: MLLE domain peptide-binding blockers, IC50 – biochemical, fluorescence polarization, FITC-PAM2 peptide, dose response (AID 602259); format: functional; settings: read-out: IC50_Mean
T1 sequence (P11940 whole entry, the tested form may be a part): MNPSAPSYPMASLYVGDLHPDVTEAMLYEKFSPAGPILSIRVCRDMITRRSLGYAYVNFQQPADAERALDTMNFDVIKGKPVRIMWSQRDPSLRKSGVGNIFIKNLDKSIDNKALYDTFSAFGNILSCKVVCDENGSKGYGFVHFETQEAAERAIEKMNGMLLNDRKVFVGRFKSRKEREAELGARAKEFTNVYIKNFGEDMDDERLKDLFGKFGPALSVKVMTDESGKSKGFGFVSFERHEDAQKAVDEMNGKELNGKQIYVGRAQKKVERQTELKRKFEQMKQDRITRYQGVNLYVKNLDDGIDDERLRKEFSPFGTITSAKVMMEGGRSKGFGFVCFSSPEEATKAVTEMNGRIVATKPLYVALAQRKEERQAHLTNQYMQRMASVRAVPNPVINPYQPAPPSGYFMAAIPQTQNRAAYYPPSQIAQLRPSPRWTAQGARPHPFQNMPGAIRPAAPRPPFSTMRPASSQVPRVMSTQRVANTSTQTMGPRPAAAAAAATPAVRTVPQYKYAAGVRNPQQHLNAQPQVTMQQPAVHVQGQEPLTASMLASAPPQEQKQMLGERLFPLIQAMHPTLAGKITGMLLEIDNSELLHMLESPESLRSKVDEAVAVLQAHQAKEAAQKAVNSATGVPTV

[4] = biological target: T1, Polyadenylate-binding protein 1; experiment: MLLE binding blockers, Cy5 peptide tracer – biochemical, fluorescence polarization, Cy5-PAM2 peptide, secondary, miRNA deadenylation inhibitor project, dose response (AID 602260); format: functional; settings: read-out: IC50_Mean
Cytochrome P450 1A2 = biological target: T2, Cytochrome P450 1A2 (Homo sapiens, UniProt P05177);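 also: PubChem cytochrome P450 panel assay, CYP1A2 panel member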
T2 sequence (P05177 whole entry): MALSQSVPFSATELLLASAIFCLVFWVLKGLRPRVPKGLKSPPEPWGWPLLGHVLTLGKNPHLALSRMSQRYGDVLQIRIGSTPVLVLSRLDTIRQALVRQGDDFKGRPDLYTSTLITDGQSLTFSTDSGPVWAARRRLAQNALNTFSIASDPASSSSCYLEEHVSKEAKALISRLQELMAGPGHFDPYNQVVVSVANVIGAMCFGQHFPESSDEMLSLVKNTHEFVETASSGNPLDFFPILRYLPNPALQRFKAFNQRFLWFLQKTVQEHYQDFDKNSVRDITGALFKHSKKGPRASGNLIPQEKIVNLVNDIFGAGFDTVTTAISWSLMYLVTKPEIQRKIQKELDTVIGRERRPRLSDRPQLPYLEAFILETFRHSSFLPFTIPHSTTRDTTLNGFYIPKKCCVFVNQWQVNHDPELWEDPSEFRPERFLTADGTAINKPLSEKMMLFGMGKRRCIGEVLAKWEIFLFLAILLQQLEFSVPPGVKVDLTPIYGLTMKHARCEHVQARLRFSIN

Cytochrome P450 3A4 = Cytochrome P450 3A4 (Homo sapiens, UniProt P08684);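 also: CYP3A4 tested as one member of a cytochrome P450 panel screen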
Cytochrome P450 3A4, sequence (P08684 whole entry): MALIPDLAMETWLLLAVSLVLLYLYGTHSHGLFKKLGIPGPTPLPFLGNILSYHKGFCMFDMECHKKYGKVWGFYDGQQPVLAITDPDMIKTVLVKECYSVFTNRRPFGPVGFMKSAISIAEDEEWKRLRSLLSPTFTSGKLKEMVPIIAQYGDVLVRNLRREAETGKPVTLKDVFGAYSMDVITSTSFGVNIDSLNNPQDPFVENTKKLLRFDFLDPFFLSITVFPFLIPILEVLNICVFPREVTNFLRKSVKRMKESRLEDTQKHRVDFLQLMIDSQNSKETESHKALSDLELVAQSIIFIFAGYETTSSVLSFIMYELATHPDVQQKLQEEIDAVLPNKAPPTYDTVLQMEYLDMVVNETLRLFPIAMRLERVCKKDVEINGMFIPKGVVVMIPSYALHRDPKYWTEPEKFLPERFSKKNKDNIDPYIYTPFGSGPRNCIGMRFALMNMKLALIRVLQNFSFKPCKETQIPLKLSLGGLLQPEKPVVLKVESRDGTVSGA

[5] = biological target: T3, Corticotropin-releasing factor receptor 2/Corticotropin-releasing factor-binding protein (Homo sapiens, UniProt P24387+Q13324); experiment: Dose Response confirmation of uHTS hits for small molecule antagonists of the CRF-binding protein and CRF-R2 receptor complex.; format: functional; settings: read-out: IC50_Mean
T3 sequence (Q13324 whole entry): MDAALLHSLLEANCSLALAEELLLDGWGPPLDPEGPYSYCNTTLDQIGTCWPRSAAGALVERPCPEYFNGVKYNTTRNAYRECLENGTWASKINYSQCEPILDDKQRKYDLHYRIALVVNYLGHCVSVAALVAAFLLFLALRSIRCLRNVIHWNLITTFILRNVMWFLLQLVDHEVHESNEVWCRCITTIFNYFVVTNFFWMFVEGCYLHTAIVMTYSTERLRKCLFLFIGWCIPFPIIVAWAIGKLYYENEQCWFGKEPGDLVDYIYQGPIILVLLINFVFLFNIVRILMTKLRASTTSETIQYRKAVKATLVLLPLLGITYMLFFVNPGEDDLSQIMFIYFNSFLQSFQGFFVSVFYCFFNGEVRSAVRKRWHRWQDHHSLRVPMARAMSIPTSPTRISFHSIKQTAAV
T3 sequence (P24387 whole entry): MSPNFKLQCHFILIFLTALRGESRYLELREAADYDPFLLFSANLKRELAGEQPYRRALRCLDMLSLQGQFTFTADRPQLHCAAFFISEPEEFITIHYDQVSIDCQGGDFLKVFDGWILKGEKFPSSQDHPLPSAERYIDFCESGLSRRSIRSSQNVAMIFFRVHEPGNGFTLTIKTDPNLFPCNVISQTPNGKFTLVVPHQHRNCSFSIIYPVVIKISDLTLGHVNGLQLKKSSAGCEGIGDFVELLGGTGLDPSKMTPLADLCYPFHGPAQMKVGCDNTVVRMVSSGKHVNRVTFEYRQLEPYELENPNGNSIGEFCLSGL

[6] = biological target: T3, Corticotropin-releasing factor receptor 2/Corticotropin-releasing factor-binding protein; experiment: activators of CRF receptor 2 with binding protein – uHTS hits, confirmation (AID 602473); format: functional; settings: read-out: EC50_Mean

Cytochrome P450 2C9, sequence (P11712 whole entry): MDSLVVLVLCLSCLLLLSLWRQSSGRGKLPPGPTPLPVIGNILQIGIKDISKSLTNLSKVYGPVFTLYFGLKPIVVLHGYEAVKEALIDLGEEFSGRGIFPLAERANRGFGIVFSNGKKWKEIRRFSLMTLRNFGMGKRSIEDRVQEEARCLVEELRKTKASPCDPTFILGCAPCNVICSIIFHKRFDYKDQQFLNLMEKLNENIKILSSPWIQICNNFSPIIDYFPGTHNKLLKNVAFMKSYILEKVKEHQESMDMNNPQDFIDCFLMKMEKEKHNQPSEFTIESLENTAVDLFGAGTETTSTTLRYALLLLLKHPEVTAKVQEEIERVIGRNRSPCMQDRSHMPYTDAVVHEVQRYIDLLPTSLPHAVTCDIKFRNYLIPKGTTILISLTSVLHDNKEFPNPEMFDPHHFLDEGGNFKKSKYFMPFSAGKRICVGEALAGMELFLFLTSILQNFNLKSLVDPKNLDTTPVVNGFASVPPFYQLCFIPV
Cytochrome P450 2C19, sequence (P33261 whole entry): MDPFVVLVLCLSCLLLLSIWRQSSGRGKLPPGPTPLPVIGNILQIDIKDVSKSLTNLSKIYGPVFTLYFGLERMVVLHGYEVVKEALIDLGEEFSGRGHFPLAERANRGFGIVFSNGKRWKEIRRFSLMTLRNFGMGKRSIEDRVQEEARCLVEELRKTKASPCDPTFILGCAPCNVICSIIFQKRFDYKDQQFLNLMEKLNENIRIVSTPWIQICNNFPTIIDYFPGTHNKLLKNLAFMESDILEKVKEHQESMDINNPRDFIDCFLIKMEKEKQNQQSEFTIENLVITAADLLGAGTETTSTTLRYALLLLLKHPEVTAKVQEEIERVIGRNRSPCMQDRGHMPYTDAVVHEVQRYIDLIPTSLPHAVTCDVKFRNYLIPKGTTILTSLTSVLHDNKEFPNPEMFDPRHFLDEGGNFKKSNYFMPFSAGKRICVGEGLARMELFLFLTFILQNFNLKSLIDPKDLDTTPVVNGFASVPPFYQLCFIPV

## Cn1sc(NC(=O)c2ccccc2Cl)nc1=O
Cytochrome P450 2C9
  AC50: 17.8 µM (inconclusive)

## O=C(c1ccncc1)N1CCC2(CC1)CCN(c1ccccc1)CC2
Cytochrome P450 2C19; read-out: AC50
  AC50: 39.8 µM (inconclusive)

## COc1ccc(C(=O)NC(C)c2cc(OC)c(OC)cc2Br)cc1 (stereo not given)
Cytochrome P450 2C19; read-out: AC50
  AC50: 39.8 µM (inconclusive)

## O=C(Cn1cnc2c(oc3ccccc32)c1=O)c1ccccc1
[1]
  EC50: 29.6 µM (active)
[2]
  EC50: 104 µM (active)
H4
  EC50: > 120 µM (not active)

## O=C(NC(=S)Nc1ccccc1N1CCCCC1)c1ccco1
[3]
  IC50: > 66 µM (inactive)
[4]
  IC50: > 66 µM (inactive)

## CCc1cccc(CC)c1NC(=O)CN(CC(=O)O)CC(=O)O [ETIFENIN]
Cytochrome P450 2C19
  AC50: inconclusive

## CCOc1ccccc1NC(=O)CSc1nnc(-c2cccnc2)o1
[3]
  IC50: > 66 µM (inactive)
[4]
  IC50: > 66 µM (inactive)

## CCOc1ccc(-n2ccnc2SCC(=O)Nc2nnc(C)s2)cc1
Cytochrome P450 1A2
  AC50: 25.1 µM (inconclusive)
Cytochrome P450 2C9
  AC50: 11.2 µM (inconclusive)

## COCCn1c(=O)c(-c2cccc(C#N)c2)nc2cnc(OCc3ccccc3)nc21
Cytochrome P450 1A2
  AC50: 12.6 µM (inconclusive)
Cytochrome P450 2C19
  AC50: inconclusive

## CC(C)Sc1nc(NCc2ccco2)c2c3c(sc2n1)COC(C)(C)C3
[1]
  EC50: 17.2 µM (active)
[2]
  EC50: 14.6 µM (active)
H4
  EC50: 8.39 µM (active)

## O=C(CCCc1ccccc1)N1CCN(C2CCCCC2)CC1
[1]
  EC50: 13.7 µM (active)
[2]
  EC50: 13.5 µM (active)
H4
  EC50: 42.8 µM (active)

## CC1(C)O[C@@H]2C[C@H]3[C@H]4C[C@H](F)C5=CC(=O)C=C[C@@]5(C)[C@@H]4[C@H](O)C[C@]3(C)[C@]2(C(=O)CO)O1
Cytochrome P450 3A4
  AC50: 12.6 µM (inconclusive)
Cytochrome P450 2C19
  AC50: inconclusive

## CCOC(=O)N1CCN(C(=O)CNS(=O)(=O)c2cccs2)CC1
Cytochrome P450 3A4
  AC50: 14.1 µM (inconclusive)
Cytochrome P450 2C9
  AC50: 3.98 µM (inconclusive)

## CCOc1ccc(C(=O)c2cccs2)cc1
[1]
  EC50: 13.5 µM (active)
[2]
  EC50: 55 µM (active)
H4
  EC50: 11.4 µM (active)
[5]
  IC50: > 47.1 µM (inactive)
[6]
  EC50: > 53 µM (inactive)

## O=C1CSC(=S)N1c1cccnc1
[3]
  IC50: > 66 µM (inactive)
[4]
  IC50: > 66 µM (inactive)

## O=C(c1ccc(Oc2ccc(C(F)(F)F)cn2)cc1)N1CCN(c2ccccc2)CC1
Cytochrome P450 3A4
  AC50: 14.1 µM (inconclusive)
Cytochrome P450 2C9
  AC50: 25.1 µM (inconclusive)

## O=[N+]([O-])c1cccc(/C(=N/N=C/c2ccccc2Br)C23CN4CN(CN(C4)C2)C3)c1
Cytochrome P450 1A2
  AC50: 22.4 µM (inconclusive)
Cytochrome P450 3A4
  AC50: 31.6 µM (inconclusive)
Cytochrome P450 2C9
  AC50: 35.5 µM (inconclusive)
Cytochrome P450 2C19; read-out: AC50
  AC50: 14.1 µM (inconclusive)

## CC(=O)c1cccc(S(=O)(=O)N2CCN(CCOc3ccccc3)CC2)c1
[3]
  IC50: > 66 µM (inactive)
[4]
  IC50: > 66 µM (inactive)

## O=C(OCc1nc2ccccc2s1)C1CCN(C2=NS(=O)(=O)c3ccccc32)CC1
[1]
  EC50: 24.8 µM (active)
[2]
  EC50: 24 µM (active)
H4
  EC50: 21.9 µM (active)

## CC1(C)CC(=O)C2=C(C1)N(c1ccc(F)cc1)C(N)=C(C#N)C2c1cccs1 (stereo not given)
Cytochrome P450 2C9
  AC50: 10 µM (inconclusive)
Cytochrome P450 2C19; read-out: AC50
  AC50: 39.8 µM (inconclusive)
